Test results: PubChem BioAssay (NCI)
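Five concentrations, 48 hours, 96-well plates. TGI marks complete inhibition of growth.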

Experiments:
Assay in all cases: NCI tumour cell line growth inhibition, 48 h
786-0 renal = test system: 786-0 renal
A498 renal = test system: A498 renal
A549 NSCLC = test system: A549 NSCLC
BT-549 breast = test system: BT-549 breast
CAKI-1 renal = test system: CAKI-1 renal
CCRF-CEM leukemia = test system: CCRF-CEM leukemia
COLO 205 colon = test system: COLO 205 colon
DU-145 prostate = test system: DU-145 prostate
HCT-116 colon = test system: HCT-116 colon
HCT-15 colon = test system: HCT-15 colon
HL-60(TB) leukemia = test system: HL-60(TB) leukemia
HOP-62 NSCLC = test system: HOP-62 NSCLC
HS 578T breast = test system: HS 578T breast
HT29 colon = test system: HT29 colon
IGROV1 ovarian = test system: IGROV1 ovarian
K-562 leukemia = test system: K-562 leukemia
KM12 colon = test system: KM12 colon
LOX IMVI melanoma = test system: LOX IMVI melanoma
M14 melanoma = test system: M14 melanoma
MALME-3M melanoma = test system: MALME-3M melanoma
MCF7 breast = test system: MCF7 breast
MDA-MB-231 breast = test system: MDA-MB-231 breast
MDA-MB-435 = test system: MDA-MB-435
MDA-N = test system: MDA-N
MOLT-4 leukemia = test system: MOLT-4 leukemia
NCI-H226 lung = test system: NCI-H226 lung
NCI-H23 lung = test system: NCI-H23 lung
NCI-H460 lung = test system: NCI-H460 lung
NCI/ADR-RES ovarian = test system: NCI/ADR-RES ovarian
OVCAR-3 ovarian = test system: OVCAR-3 ovarian
OVCAR-4 ovarian = test system: OVCAR-4 ovarian
OVCAR-8 ovarian = test system: OVCAR-8 ovarian
PC-3 prostate = test system: PC-3 prostate
RPMI-8226 leukemia = test system: RPMI-8226 leukemia
RXF 393 renal = test system: RXF 393 renal
SF-268 CNS = test system: SF-268 CNS
SF-295 CNS = test system: SF-295 CNS
SF-539 CNS = test system: SF-539 CNS
SK-MEL-2 melanoma = test system: SK-MEL-2 melanoma
SK-MEL-28 melanoma = test system: SK-MEL-28 melanoma
SK-MEL-5 melanoma = test system: SK-MEL-5 melanoma
SK-OV-3 ovarian = test system: SK-OV-3 ovarian
SN12C renal = test system: SN12C renal
SNB-19 CNS = test system: SNB-19 CNS
SNB-75 CNS = test system: SNB-75 CNS
SR leukemia = test system: SR leukemia
SW-620 colon = test system: SW-620 colon
TK-10 renal = test system: TK-10 renal
U251 CNS = test system: U251 CNS
UACC-257 melanoma = test system: UACC-257 melanoma
UACC-62 melanoma = test system: UACC-62 melanoma
UO-31 renal = test system: UO-31 renal
ACHN renal = test system: ACHN renal
HCC-2998 colon = test system: HCC-2998 colon
HOP-92 NSCLC = test system: HOP-92 NSCLC
NCI-H522 lung = test system: NCI-H522 lung
OVCAR-5 ovarian = test system: OVCAR-5 ovarian
T-47D breast = test system: T-47D breast
EKVX NSCLC = test system: EKVX NSCLC

## COc1ccc(-n2c3c(c4cc(O)ccc42)Cc2ccccc2C3=O)cc1
786-0 renal
  TGI: > 100 µM
A498 renal
  TGI: > 100 µM
A549 NSCLC
  TGI: > 100 µM
BT-549 breast
  TGI: > 100 µM
CAKI-1 renal
  TGI: > 100 µM
CCRF-CEM leukemia
  TGI: 27.3 µM
COLO 205 colon
  TGI: 51 µM
DU-145 prostate
  TGI: > 100 µM
HCT-116 colon
  TGI: > 100 µM
HCT-15 colon
  TGI: > 100 µM
HL-60(TB) leukemia
  TGI: > 100 µM
HOP-62 NSCLC
  TGI: > 100 µM
HS 578T breast
  TGI: > 100 µM
HT29 colon
  TGI: > 100 µM
IGROV1 ovarian
  TGI: > 100 µM
K-562 leukemia
  TGI: > 100 µM
KM12 colon
  TGI: > 100 µM
LOX IMVI melanoma
  TGI: > 100 µM
M14 melanoma
  TGI: > 100 µM
MALME-3M melanoma
  TGI: > 100 µM
MCF7 breast
  TGI: 79.7 µM
MDA-MB-231 breast
  TGI: > 100 µM
MDA-MB-435
  TGI: > 100 µM
MDA-N
  TGI: > 100 µM
MOLT-4 leukemia
  TGI: > 100 µM
NCI-H226 lung
  TGI: > 100 µM
NCI-H23 lung
  TGI: > 100 µM
NCI-H460 lung
  TGI: > 100 µM
NCI/ADR-RES ovarian
  TGI: > 100 µM
OVCAR-3 ovarian
  TGI: > 100 µM
OVCAR-4 ovarian
  TGI: 82.1 µM
OVCAR-8 ovarian
  TGI: > 100 µM
PC-3 prostate
  TGI: 15.3 µM
RPMI-8226 leukemia
  TGI: 32.7 µM
RXF 393 renal
  TGI: 9.38 µM
SF-268 CNS
  TGI: > 100 µM
SF-295 CNS
  TGI: 86.7 µM
SF-539 CNS
  TGI: > 100 µM
SK-MEL-2 melanoma
  TGI: > 100 µM
SK-MEL-28 melanoma
  TGI: > 100 µM
SK-MEL-5 melanoma
  TGI: > 100 µM
SK-OV-3 ovarian
  TGI: 57 µM
SN12C renal
  TGI: > 100 µM
SNB-19 CNS
  TGI: > 100 µM
SNB-75 CNS
  TGI: 31.9 µM
SR leukemia
  TGI: > 100 µM
SW-620 colon
  TGI: > 100 µM
TK-10 renal
  TGI: > 100 µM
U251 CNS
  TGI: > 100 µM
UACC-257 melanoma
  TGI: > 100 µM
UACC-62 melanoma
  TGI: > 100 µM
UO-31 renal
  TGI: > 100 µM

## CCOC(=O)c1sc2c(c1O)c(=O)n(-c1ccccc1)c(=S)n2-c1ccccc1
786-0 renal
  TGI: > 100 µM
A549 NSCLC
  TGI: > 100 µM
ACHN renal
  TGI: > 100 µM
BT-549 breast
  TGI: > 100 µM
CCRF-CEM leukemia
  TGI: > 100 µM
COLO 205 colon
  TGI: > 100 µM
DU-145 prostate
  TGI: > 100 µM
HCC-2998 colon
  TGI: > 100 µM
HCT-15 colon
  TGI: > 100 µM
HL-60(TB) leukemia
  TGI: > 100 µM
HOP-92 NSCLC
  TGI: > 100 µM
HS 578T breast
  TGI: > 100 µM
HT29 colon
  TGI: > 100 µM
IGROV1 ovarian
  TGI: > 100 µM
K-562 leukemia
  TGI: > 100 µM
KM12 colon
  TGI: > 100 µM
LOX IMVI melanoma
  TGI: > 100 µM
M14 melanoma
  TGI: > 100 µM
MALME-3M melanoma
  TGI: > 100 µM
MCF7 breast
  TGI: > 100 µM
MDA-MB-231 breast
  TGI: > 100 µM
MDA-MB-435
  TGI: > 100 µM
MDA-N
  TGI: > 100 µM
NCI-H226 lung
  TGI: > 100 µM
NCI-H23 lung
  TGI: > 100 µM
NCI-H460 lung
  TGI: > 100 µM
NCI-H522 lung
  TGI: > 100 µM
OVCAR-3 ovarian
  TGI: > 100 µM
OVCAR-4 ovarian
  TGI: > 100 µM
OVCAR-5 ovarian
  TGI: > 100 µM
OVCAR-8 ovarian
  TGI: > 100 µM
RPMI-8226 leukemia
  TGI: > 100 µM
RXF 393 renal
  TGI: > 100 µM
SF-268 CNS
  TGI: > 100 µM
SF-295 CNS
  TGI: > 100 µM
SK-MEL-2 melanoma
  TGI: > 100 µM
SK-MEL-28 melanoma
  TGI: > 100 µM
SK-MEL-5 melanoma
  TGI: > 100 µM
SN12C renal
  TGI: > 100 µM
SNB-19 CNS
  TGI: > 100 µM
SNB-75 CNS
  TGI: > 100 µM
SR leukemia
  TGI: 46.9 µM
SW-620 colon
  TGI: > 100 µM
T-47D breast
  TGI: > 100 µM
TK-10 renal
  TGI: > 100 µM
U251 CNS
  TGI: > 100 µM
UACC-257 melanoma
  TGI: > 100 µM
UACC-62 melanoma
  TGI: > 100 µM
UO-31 renal
  TGI: > 100 µM

## CC(C)CC(NP(=O)(O)OC1OC(C)C(O)C(O)C1O)C(=O)NC(Cc1c[nH]c2ccccc12)C(=O)O (configuration not stated)
786-0 renal
  TGI: > 100 µM
A498 renal
  TGI: > 100 µM
A549 NSCLC
  TGI: > 100 µM
BT-549 breast
  TGI: > 100 µM
CAKI-1 renal
  TGI: > 100 µM
CCRF-CEM leukemia
  TGI: > 100 µM
COLO 205 colon
  TGI: > 100 µM
DU-145 prostate
  TGI: > 100 µM
EKVX NSCLC
  TGI: > 100 µM
HCC-2998 colon
  TGI: > 100 µM
HCT-116 colon
  TGI: > 100 µM
HCT-15 colon
  TGI: > 100 µM
HOP-62 NSCLC
  TGI: > 100 µM
HOP-92 NSCLC
  TGI: > 100 µM
HS 578T breast
  TGI: > 100 µM
HT29 colon
  TGI: > 100 µM
IGROV1 ovarian
  TGI: > 100 µM
K-562 leukemia
  TGI: > 100 µM
KM12 colon
  TGI: > 100 µM
M14 melanoma
  TGI: > 100 µM
MALME-3M melanoma
  TGI: > 100 µM
MCF7 breast
  TGI: > 100 µM
MDA-MB-231 breast
  TGI: > 100 µM
MDA-MB-435
  TGI: > 100 µM
MDA-N
  TGI: > 100 µM
MOLT-4 leukemia
  TGI: > 100 µM
NCI-H226 lung
  TGI: > 100 µM
NCI-H23 lung
  TGI: > 100 µM
NCI-H460 lung
  TGI: > 100 µM
NCI-H522 lung
  TGI: > 100 µM
NCI/ADR-RES ovarian
  TGI: > 100 µM
OVCAR-3 ovarian
  TGI: > 100 µM
OVCAR-4 ovarian
  TGI: > 100 µM
OVCAR-5 ovarian
  TGI: > 100 µM
OVCAR-8 ovarian
  TGI: > 100 µM
PC-3 prostate
  TGI: > 100 µM
RPMI-8226 leukemia
  TGI: > 100 µM
SF-268 CNS
  TGI: > 100 µM
SF-295 CNS
  TGI: > 100 µM
SF-539 CNS
  TGI: > 100 µM
SK-MEL-28 melanoma
  TGI: > 100 µM
SK-MEL-5 melanoma
  TGI: > 100 µM
SK-OV-3 ovarian
  TGI: > 100 µM
SN12C renal
  TGI: > 100 µM
SNB-19 CNS
  TGI: > 100 µM
SNB-75 CNS
  TGI: > 100 µM
SW-620 colon
  TGI: > 100 µM
T-47D breast
  TGI: > 100 µM
U251 CNS
  TGI: > 100 µM
UACC-257 melanoma
  TGI: > 100 µM
UACC-62 melanoma
  TGI: > 100 µM
UO-31 renal
  TGI: > 100 µM

## O=C(O)C1CCCCN1C(=O)Cc1c[nH]c2ccccc12 (configuration not stated)
786-0 renal
  TGI: > 100 µM
A549 NSCLC
  TGI: > 100 µM
ACHN renal
  TGI: > 100 µM
BT-549 breast
  TGI: > 100 µM
CAKI-1 renal
  TGI: > 100 µM
CCRF-CEM leukemia
  TGI: > 100 µM
COLO 205 colon
  TGI: > 100 µM
DU-145 prostate
  TGI: > 100 µM
EKVX NSCLC
  TGI: > 100 µM
HCC-2998 colon
  TGI: > 100 µM
HCT-116 colon
  TGI: > 100 µM
HCT-15 colon
  TGI: > 100 µM
HL-60(TB) leukemia
  TGI: > 100 µM
HOP-62 NSCLC
  TGI: > 100 µM
HOP-92 NSCLC
  TGI: > 100 µM
HT29 colon
  TGI: > 100 µM
IGROV1 ovarian
  TGI: > 100 µM
K-562 leukemia
  TGI: > 100 µM
KM12 colon
  TGI: > 100 µM
LOX IMVI melanoma
  TGI: > 100 µM
M14 melanoma
  TGI: > 100 µM
MALME-3M melanoma
  TGI: > 100 µM
MCF7 breast
  TGI: > 100 µM
MDA-MB-231 breast
  TGI: > 100 µM
MDA-MB-435
  TGI: > 100 µM
MDA-N
  TGI: > 100 µM
MOLT-4 leukemia
  TGI: > 100 µM
NCI-H226 lung
  TGI: > 100 µM
NCI-H23 lung
  TGI: > 100 µM
NCI-H460 lung
  TGI: > 100 µM
NCI-H522 lung
  TGI: > 100 µM
NCI/ADR-RES ovarian
  TGI: > 100 µM
OVCAR-3 ovarian
  TGI: > 100 µM
OVCAR-4 ovarian
  TGI: > 100 µM
OVCAR-5 ovarian
  TGI: > 100 µM
OVCAR-8 ovarian
  TGI: > 100 µM
PC-3 prostate
  TGI: > 100 µM
RPMI-8226 leukemia
  TGI: > 100 µM
RXF 393 renal
  TGI: > 100 µM
SF-268 CNS
  TGI: > 100 µM
SF-295 CNS
  TGI: > 100 µM
SF-539 CNS
  TGI: > 100 µM
SK-MEL-2 melanoma
  TGI: > 100 µM
SK-MEL-28 melanoma
  TGI: > 100 µM
SK-OV-3 ovarian
  TGI: > 100 µM
SN12C renal
  TGI: > 100 µM
SNB-19 CNS
  TGI: > 100 µM
SNB-75 CNS
  TGI: > 100 µM
SW-620 colon
  TGI: > 100 µM
T-47D breast
  TGI: > 100 µM
TK-10 renal
  TGI: > 100 µM
U251 CNS
  TGI: > 100 µM
UACC-257 melanoma
  TGI: > 100 µM
UACC-62 melanoma
  TGI: > 100 µM
